For one series, the system named is IL-6. The series is described as follows: Th1/Th2 cytokine measurement (Cytometric Bead Array) in LPS-stimulated Raw 264.7 cells, IL-6. Type of series: cell-based, Murine. The note with it: compound at 20 µM, LPS 0.1 μg/mL, 24 h; stimulated untreated control 175.96 pg/mL. Here is the method:
Raw 264.7 cells were seeded at 2 × 10^5 cells/mL in a 48-well microplate and allowed to adhere for 24 h, then treated with LPS 0.1 μg/mL and with compounds (1), (5) and (6) at 20 µM. Untreated cells and indomethacin (10 µM) were used as controls. After 24 h of incubation, the supernatant was collected and the amount of pro-inflammatory Th1 cytokines (IFN-γ, TNF-α, and IL-2) and anti-inflammatory Th2 cytokines (IL-4, IL-6, and IL-10) released measured. The experiment was performed according to the manufacturer’s instructions using BD™ Cytometric Bead Array (CBA) […] Th1/Th2 Cytokine Kit (BD-Biosciences), and data were acquired on a BD LSR Fortessa™ cell analyzer flow cytometer.

The target in another series is T1, COX-1 (Mus musculus, UniProt P22437).
T1 construct: The cell lysate was centrifuged at 12000 x g for 3 min and the supernatant was collected for COX activity assay; endogenous in cells
T1 sequence (P22437 27-602): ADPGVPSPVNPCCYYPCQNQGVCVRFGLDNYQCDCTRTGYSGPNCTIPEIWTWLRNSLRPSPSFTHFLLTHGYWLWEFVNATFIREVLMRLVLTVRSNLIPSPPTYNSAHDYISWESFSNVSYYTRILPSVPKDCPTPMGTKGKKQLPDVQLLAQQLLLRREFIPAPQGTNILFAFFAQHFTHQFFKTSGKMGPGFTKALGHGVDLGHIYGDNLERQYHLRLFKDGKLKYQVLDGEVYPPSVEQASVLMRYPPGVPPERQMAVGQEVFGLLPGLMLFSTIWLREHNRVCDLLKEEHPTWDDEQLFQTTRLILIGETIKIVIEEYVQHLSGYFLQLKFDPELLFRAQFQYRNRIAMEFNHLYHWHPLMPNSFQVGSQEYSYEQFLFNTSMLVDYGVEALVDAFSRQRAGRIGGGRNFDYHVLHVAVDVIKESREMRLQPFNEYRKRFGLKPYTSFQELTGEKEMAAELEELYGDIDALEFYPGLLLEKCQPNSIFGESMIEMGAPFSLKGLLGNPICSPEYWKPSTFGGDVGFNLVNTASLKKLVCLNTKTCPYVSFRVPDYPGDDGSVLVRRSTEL
In words: Fluorometric COX activity assay in lysate of LPS-treated Raw 264.7 cells, COX-1. It is filed as cell-based, Murine. The note with it: compound at 20 µM, LPS 0.1 μg/mL, 24 h; untreated control 85.19 µU/mg. As to the method:
The fluorometric cyclooxygenase activity assay kit (Biovision) was used to evaluate the activity of COX-1 and COX-2 enzymes. Raw 264.7 cells were seeded at 2 × 10^5 cells/mL in a 48-well microplate, and allowed to adhere for 24 h, then treated with LPS 0.1 μg/mL and compounds (1), (5) and (6) at 20 µM against Raw 264.7 cells. After 24 h the cyclooxygenase enzyme (COX-1 and COX-2) activity assay was performed. Cells were detached with TNE buffer (Tris 40 mM, NaCl 150 mM, EDTA 1 mM) and washed with PBS (1x), then re-suspended in 1 mL PBS (1x), transferred into 1.5 mL tube, and centrifuged at 500 x g for 3 min. The pellet was then re-suspended in 0.5 mL of lysis buffer with a protease inhibitor cocktail, vortexed, and incubated at 4°C for 5 min. The cell lysate was centrifuged at 12000 x g for 3 min and the supernatant was collected for COX activity assay. The COX activity was assessed using the fluorometric cyclooxygenase activity assay kit (Biovision) following the manufacturer’s instructions. The assay includes COX-1 and COX-2 specific inhibitors to differentiate the activity of COX-1 and COX-2 as well as other peroxidases. Indomethacin (10 µM) was used as a standard drug and appropriate controls were also included.

For orientation: melting point means the temperature of the solid-liquid transition.

Consider `CC(C)=CCc1c2c(c3oc4c(O)cccc4c(=O)c3c1O)C=CC(C)(C)O2` [Compound 1, Ananixanthone], for which the IL-6 level in the series with IL-6 is listed as 144.25 pg/mL. This compound also came in with a COX-1 activity at COX-1 of 52.55 µU/mg.
In the case of `CC(C)=CCC/C(C)=C/C[C@]12C[C@@H](CC=C(C)C)C(C)(C)[C@](CC=C(C)C)(C(=O)C(C(=O)c3ccc(O)c(O)c3)=C1O)C2=O` [Compound 6, Guttiferone M], the melting point came to 82 °C.
As to `CC(C)=CCC/C(C)=C/C[C@]12C[C@@H](CC=C(C)C)C(C)(C)[C@](C/C=C(\C)CCC=C(C)C)(C(=O)C(C(=O)c3ccc(O)c(O)c3)=C1O)C2=O` [Compound 5, Guttiferone O], the melting point amounted to 103 °C. For the same compound, the COX-1 activity at COX-1 is listed as 32.28 µU/mg.

These data come from article PMC11180795 (Frontiers in Pharmacology, 2024).
